Values quoted from earlier work, collected in US20130052262A1, “DABIGATRAN ETEXILATE-CONTAINING ORAL PHARMACEUTICAL COMPOSITION” (priority 2010, published 2013).

Settings: in the acidic environment

pH-dependent solubility: greatly increased
Compound: CCCCCCOC(=O)NC(=N)c1ccc(NCc2nc3cc(C(=O)N(CCC(=O)OCC)c4ccccn4)ccc3n2C)cc1 [dabigatran etexilate, 3-[(2-{[4-(hexyloxycarbonylamino-imino-methyl)-phenylamino]-methyl}-1-methyl-1H-benzimidazole-5-carbonyl)-pyridine-2-yl-amino]-propionic acid ethyl ester]
